Measurements reported in PubChem BioAssay (NCI).
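Five compound concentrations were applied to cells in 96-well plates for 48 hours; endpoints were derived by simple linear interpolation of the resulting dose-response curve. TGI: concentration producing complete growth inhibition.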

Columns and labels:
Assay in all cases: NCI tumour cell line growth inhibition, 48 h
MCF7 breast = tested on: MCF7 breast
CAKI-1 renal = tested on: CAKI-1 renal
SNB-19 CNS = tested on: SNB-19 CNS
IGROV1 ovarian = tested on: IGROV1 ovarian
786-0 renal = tested on: 786-0 renal
SF-268 CNS = tested on: SF-268 CNS
EKVX NSCLC = tested on: EKVX NSCLC
K-562 leukemia = tested on: K-562 leukemia
OVCAR-5 ovarian = tested on: OVCAR-5 ovarian
OVCAR-4 ovarian = tested on: OVCAR-4 ovarian
MOLT-4 leukemia = tested on: MOLT-4 leukemia
SNB-75 CNS = tested on: SNB-75 CNS
PC-3 prostate = tested on: PC-3 prostate
HT29 colon = tested on: HT29 colon
NCI-H522 lung = tested on: NCI-H522 lung
BT-549 breast = tested on: BT-549 breast
HCT-15 colon = tested on: HCT-15 colon
OVCAR-3 ovarian = tested on: OVCAR-3 ovarian
HCT-116 colon = tested on: HCT-116 colon
SK-MEL-5 melanoma = tested on: SK-MEL-5 melanoma
OVCAR-8 ovarian = tested on: OVCAR-8 ovarian
TK-10 renal = tested on: TK-10 renal
RXF 393 renal = tested on: RXF 393 renal
SF-539 CNS = tested on: SF-539 CNS
NCI-H460 lung = tested on: NCI-H460 lung
SF-295 CNS = tested on: SF-295 CNS
SW-620 colon = tested on: SW-620 colon
RPMI-8226 leukemia = tested on: RPMI-8226 leukemia
SK-MEL-28 melanoma = tested on: SK-MEL-28 melanoma
HL-60(TB) leukemia = tested on: HL-60(TB) leukemia
SK-OV-3 ovarian = tested on: SK-OV-3 ovarian
COLO 205 colon = tested on: COLO 205 colon
NCI-H23 lung = tested on: NCI-H23 lung
HOP-92 NSCLC = tested on: HOP-92 NSCLC
HOP-62 NSCLC = tested on: HOP-62 NSCLC
UACC-62 melanoma = tested on: UACC-62 melanoma
HCC-2998 colon = tested on: HCC-2998 colon
MALME-3M melanoma = tested on: MALME-3M melanoma
NCI-H226 lung = tested on: NCI-H226 lung
U251 CNS = tested on: U251 CNS
NCI/ADR-RES ovarian = tested on: NCI/ADR-RES ovarian
ACHN renal = tested on: ACHN renal
CCRF-CEM leukemia = tested on: CCRF-CEM leukemia
SN12C renal = tested on: SN12C renal
A549 NSCLC = tested on: A549 NSCLC
DU-145 prostate = tested on: DU-145 prostate
UACC-257 melanoma = tested on: UACC-257 melanoma
UO-31 renal = tested on: UO-31 renal
SR leukemia = tested on: SR leukemia
MDA-N = tested on: MDA-N
SK-MEL-2 melanoma = tested on: SK-MEL-2 melanoma
KM12 colon = tested on: KM12 colon
M14 melanoma = tested on: M14 melanoma
A498 renal = tested on: A498 renal
MDA-MB-435 = tested on: MDA-MB-435
LOX IMVI melanoma = tested on: LOX IMVI melanoma
HS 578T breast = tested on: HS 578T breast
MDA-MB-231 breast = tested on: MDA-MB-231 breast

With `N#C/C(=C\c1cc(F)cc(F)c1)c1ccccn1` the TGI (MCF7 breast) was > 100 µM, the TGI (CAKI-1 renal) was > 100 µM and the TGI (SNB-19 CNS) was > 100 µM. The TGI (IGROV1 ovarian) was > 100 µM, the TGI (786-0 renal) was > 10 µM and the TGI (SF-268 CNS) was 52.8 µM. For the same compound, the TGI (EKVX NSCLC) was 44.3 µM, the TGI (K-562 leukemia) was > 100 µM and the TGI (OVCAR-5 ovarian) was > 100 µM. The TGI (OVCAR-4 ovarian) was > 100 µM, the TGI (MOLT-4 leukemia) was 45.8 µM and the TGI (SNB-75 CNS) was > 100 µM. For the same compound, the TGI (PC-3 prostate) was > 100 µM, the TGI (HT29 colon) was > 100 µM and the TGI (NCI-H522 lung) was 74.8 µM. For the same compound, the TGI (BT-549 breast) was 97.1 µM, the TGI (HCT-15 colon) was 34.2 µM and the TGI (OVCAR-3 ovarian) was > 100 µM. For the same compound, the TGI (HCT-116 colon) was > 100 µM, the TGI (SK-MEL-5 melanoma) was > 100 µM and the TGI (OVCAR-8 ovarian) was 45.4 µM. The TGI (TK-10 renal) was > 100 µM, the TGI (RXF 393 renal) was > 100 µM and the TGI (SF-539 CNS) was 43.5 µM. For the same compound, the TGI (NCI-H460 lung) was 74 µM, the TGI (SF-295 CNS) was 60.2 µM and the TGI (SW-620 colon) was > 10 µM. For the same compound, the TGI (RPMI-8226 leukemia) was > 100 µM, the TGI (SK-MEL-28 melanoma) was > 100 µM and the TGI (HL-60(TB) leukemia) was > 10 µM. The TGI (SK-OV-3 ovarian) was > 100 µM, the TGI (COLO 205 colon) was > 10 µM and the TGI (NCI-H23 lung) was 72.8 µM. For the same compound, the TGI (HOP-92 NSCLC) was 48.1 µM, the TGI (HOP-62 NSCLC) was > 10 µM and the TGI (UACC-62 melanoma) was > 100 µM. The TGI (HCC-2998 colon) was 60 µM, the TGI (MALME-3M melanoma) was 73.9 µM and the TGI (NCI-H226 lung) was 56.9 µM. The TGI (U251 CNS) was 40 µM, the TGI (NCI/ADR-RES ovarian) was 66.9 µM and the TGI (ACHN renal) was > 100 µM. For the same compound, the TGI (CCRF-CEM leukemia) was > 100 µM, the TGI (SN12C renal) was 62.9 µM and the TGI (A549 NSCLC) was > 100 µM. For the same compound, the TGI (DU-145 prostate) was > 100 µM, the TGI (UACC-257 melanoma) was > 100 µM and the TGI (UO-31 renal) was > 100 µM. The TGI (SR leukemia) was 88.6 µM, the TGI (MDA-N) was > 100 µM and the TGI (SK-MEL-2 melanoma) was > 100 µM. For the same compound, the TGI (KM12 colon) was 68 µM and the TGI (M14 melanoma) was 88.6 µM.

`O=C(N=Nc1c(O)[nH]c2c(Cl)cc(Cl)cc12)c1ccccc1O` was tested, and the TGI (A498 renal) was 30.8 µM, the TGI (MDA-MB-435) was 26.9 µM and the TGI (MCF7 breast) was 41 µM. For the same compound, the TGI (CAKI-1 renal) was 31.1 µM, the TGI (SNB-19 CNS) was 27.8 µM and the TGI (IGROV1 ovarian) was 26.9 µM. The TGI (786-0 renal) was 26.3 µM, the TGI (EKVX NSCLC) was 26.3 µM and the TGI (LOX IMVI melanoma) was 28 µM. For the same compound, the TGI (OVCAR-5 ovarian) was 32.4 µM, the TGI (OVCAR-4 ovarian) was 26.9 µM and the TGI (MOLT-4 leukemia) was 31 µM. It also gave a TGI (SNB-75 CNS) of 22.8 µM, a TGI (PC-3 prostate) of 29 µM and a TGI (HT29 colon) of 34.8 µM. For the same compound, the TGI (BT-549 breast) was 27.7 µM, the TGI (HCT-15 colon) was 29.2 µM and the TGI (OVCAR-3 ovarian) was 25.1 µM. The TGI (HCT-116 colon) was 27.3 µM, the TGI (SK-MEL-5 melanoma) was 28.7 µM and the TGI (OVCAR-8 ovarian) was 25.2 µM. The TGI (TK-10 renal) was 29.3 µM, the TGI (RXF 393 renal) was 25.3 µM and the TGI (SF-539 CNS) was 29.6 µM. The TGI (NCI-H460 lung) was 27.6 µM, the TGI (SF-295 CNS) was 28.4 µM and the TGI (SW-620 colon) was 34.5 µM. The TGI (HS 578T breast) was 29 µM, the TGI (SK-MEL-28 melanoma) was 30 µM and the TGI (HL-60(TB) leukemia) was 43.4 µM. It also gave a TGI (MDA-MB-231 breast) of 30.1 µM, a TGI (SK-OV-3 ovarian) of 30.6 µM and a TGI (COLO 205 colon) of 38.5 µM. For the same compound, the TGI (NCI-H23 lung) was 33.1 µM, the TGI (HOP-92 NSCLC) was 28.6 µM and the TGI (HOP-62 NSCLC) was 29.2 µM. For the same compound, the TGI (UACC-62 melanoma) was 24.8 µM, the TGI (HCC-2998 colon) was 31.1 µM and the TGI (MALME-3M melanoma) was 27.1 µM. The TGI (NCI-H226 lung) was 29.4 µM, the TGI (U251 CNS) was 21 µM and the TGI (NCI/ADR-RES ovarian) was 26.3 µM. The TGI (ACHN renal) was 25.8 µM, the TGI (CCRF-CEM leukemia) was 46.9 µM and the TGI (SN12C renal) was 30.5 µM. The TGI (A549 NSCLC) was 27.4 µM, the TGI (UACC-257 melanoma) was 33.2 µM and the TGI (UO-31 renal) was 24.3 µM. It also gave a TGI (SR leukemia) of 23.7 µM, a TGI (MDA-N) of 28.1 µM and a TGI (SK-MEL-2 melanoma) of 26.1 µM. For the same compound, the TGI (KM12 colon) was 29.5 µM and the TGI (M14 melanoma) was 30.3 µM.

For `CC(C)C1=C(O)C2=C(C(=O)C1=O)C1(C)CCCC(C)(C)C1CC2O` (stereo unspecified), the TGI (A498 renal) was 38.6 µM, the TGI (MDA-MB-435) was 13.6 µM and the TGI (MCF7 breast) was 22.8 µM. For the same compound, the TGI (CAKI-1 renal) was 24.1 µM, the TGI (SNB-19 CNS) was 21.4 µM and the TGI (IGROV1 ovarian) was 77.7 µM. For the same compound, the TGI (786-0 renal) was > 100 µM, the TGI (SF-268 CNS) was > 100 µM and the TGI (EKVX NSCLC) was 49.7 µM. The TGI (LOX IMVI melanoma) was > 100 µM, the TGI (K-562 leukemia) was > 100 µM and the TGI (OVCAR-5 ovarian) was 43.2 µM. The TGI (OVCAR-4 ovarian) was 82.6 µM, the TGI (MOLT-4 leukemia) was > 100 µM and the TGI (SNB-75 CNS) was > 100 µM. For the same compound, the TGI (PC-3 prostate) was 31.7 µM, the TGI (HT29 colon) was 62 µM and the TGI (NCI-H522 lung) was 53.7 µM. The TGI (BT-549 breast) was 25.9 µM, the TGI (HCT-15 colon) was 13.8 µM and the TGI (OVCAR-3 ovarian) was 29 µM. The TGI (HCT-116 colon) was > 100 µM, the TGI (SK-MEL-5 melanoma) was 5.23 µM and the TGI (OVCAR-8 ovarian) was 90.7 µM. For the same compound, the TGI (TK-10 renal) was > 100 µM, the TGI (RXF 393 renal) was 5.89 µM and the TGI (SF-539 CNS) was 52.7 µM. For the same compound, the TGI (NCI-H460 lung) was 12.8 µM, the TGI (SF-295 CNS) was 64.4 µM and the TGI (SW-620 colon) was 63.2 µM. The TGI (HS 578T breast) was > 100 µM, the TGI (SK-MEL-28 melanoma) was 38.5 µM and the TGI (HL-60(TB) leukemia) was 30.4 µM. The TGI (MDA-MB-231 breast) was 9.46 µM, the TGI (SK-OV-3 ovarian) was 45.5 µM and the TGI (COLO 205 colon) was > 100 µM. The TGI (NCI-H23 lung) was 3.93 µM, the TGI (HOP-92 NSCLC) was 13.3 µM and the TGI (HOP-62 NSCLC) was 21.1 µM. For the same compound, the TGI (UACC-62 melanoma) was 8.66 µM, the TGI (HCC-2998 colon) was 12 µM and the TGI (MALME-3M melanoma) was 16.6 µM. The TGI (U251 CNS) was > 100 µM, the TGI (ACHN renal) was 13.2 µM and the TGI (CCRF-CEM leukemia) was 23.6 µM. The TGI (SN12C renal) was 28 µM, the TGI (A549 NSCLC) was 34.8 µM and the TGI (DU-145 prostate) was > 100 µM. It also gave a TGI (UACC-257 melanoma) of 31.9 µM, a TGI (UO-31 renal) of 17.9 µM and a TGI (SR leukemia) of 58.4 µM. It also gave a TGI (MDA-N) of 4.76 µM, a TGI (SK-MEL-2 melanoma) of 11 µM and a TGI (KM12 colon) of 19 µM. The TGI (M14 melanoma) was 15.3 µM.
